Source: the Deep4Chem optical property database

Test: solvent given as SMILES

**Q.** For `CC1(C)c2ccccc2N(c2ccc(-c3nnc(-c4ccccc4)o3)cc2)c2ccccc21`, which emission maximum (in Cc1ccccc1) is on record?
**A.** The emission maximum was 450 nm.

**Q.** What about the emission maximum (in c1ccc(-n2c(-c3c(-n4c5ccccc5c5ccccc54)cccc3-n3c4ccccc4c4ccccc43)nc3ccccc32)cc1) of the same molecule?
**A.** Its emission maximum is 455 nm.

**Q.** With `CCc1ccc(-n2c3ccccc3c3cc4c(cc32)c2ccccc2n4-c2ccc(CC)cc2)cc1` as the molecule, how does the emission maximum (in ClC(Cl)Cl) read?
**A.** The emission maximum was 415 nm.

**Q.** For `CCCCOc1ccc(-c2oc3c(-c4ccc(OCCCC)cc4)c4n(c3c2-c2ccc(OCCCC)cc2)[B-](F)(F)[N+]2=Cc3c(-c5ccc(OCCCC)cc5)c5oc(-c6ccc(OCCCC)cc6)c(-c6ccc(OCCCC)cc6)c5n3[B-](F)(F)[N+]2=C4)cc1`, which emission maximum (in C1CCOC1) is on record?
**A.** The emission maximum was 663 nm.

**Q.** What about the emission maximum (in CN(C)C=O) of the same molecule?
**A.** Its emission maximum is 672 nm.

**Q.** And the emission maximum (in CS(C)=O)?
**A.** Its emission maximum is 676 nm.

**Q.** And the emission maximum (in Cc1ccccc1)?
**A.** The emission maximum was 668 nm.

**Q.** What about the emission maximum (in ClC(Cl)Cl) of the same molecule?
**A.** Its emission maximum is 666 nm.

**Q.** What about the emission maximum (in ClCCl) of the same molecule?
**A.** The emission maximum was 667 nm.

**Q.** Which results are given for `COc1cc(/C=C/C(=O)CC(=O)/C=C/c2ccc(O)c(OC)c2)ccc1O`?
**A.** emission maximum (in C1CCCCC1): 446 nm; emission maximum (in CC#N): 538 nm; emission maximum (in CN(C)C=O): 542 nm; emission maximum (in CO): 560 nm; emission maximum (in CS(C)=O): 549 nm; emission maximum (in c1ccccc1): 464 nm

**Q.** For `Cc1ccc(N2C(c3ccccc3[N-]S(=O)(=O)c3ccc(C)cc3)=[NH+]C(c3ccccc3)C2c2ccccc2)cc1` (stereo not given), which emission maximum (in Cc1ccccc1) is on record?
**A.** Its emission maximum is 499 nm.

**Q.** What does the source list for `COc1cc(/C=C/c2nc3ccccc3s2)c(OC)cc1/C=C/c1nc(C)nc(/C=C/c2cc(OC)c(/C=C/c3nc4ccccc4s3)cc2OC)n1`?
**A.** emission maximum (in C1CCOC1): 490 nm; emission maximum (in CC#N): 505 nm; emission maximum (in ClC(Cl)Cl): 500 nm; emission maximum (in ClCCl): 502 nm

**Q.** With `CN1C(=CC2=C([O-])C(=CC3=[N+](C)c4ccccc4C3(C)C)C2=NC#N)C(C)(C)c2ccccc21` as the molecule, how does the emission maximum (in ClC(Cl)Cl) read?
**A.** The emission maximum was 665 nm.

**Q.** For `Fc1c(F)c(-n2c3ccccc3c3ccccc32)c(F)c(-n2c3ccccc3c3ccccc32)c1-c1nnc(-c2ccccc2)o1`, which emission maximum (in Cc1ccccc1) is on record?
**A.** Its emission maximum is 449 nm.

**Q.** For `Cc1cc(C)c(C)c(B(c2c(C)c(C)c(N3c4ccccc4Oc4ccccc43)c(C)c2C)c2c(C)c(C)c(N3c4ccccc4Oc4ccccc43)c(C)c2C)c1C`, which emission maximum (in CC(C)(C)c1ccc(-n2c3ccc([Si](c4ccccc4)(c4ccccc4)c4ccccc4)cc3c3cc([Si](c4ccccc4)(c4ccccc4)c4ccccc4)ccc32)cc1) is on record?
**A.** Its emission maximum is 484 nm.

**Q.** With `c1ccc(-c2nc(-c3ccc(-c4ccc(N(c5ccccc5)c5ccccc5)cc4)cn3)oc2-c2ccccc2)cc1` as the molecule, how does the emission maximum (in C1CCOC1) read?
**A.** Its emission maximum is 458 nm.

**Q.** What about the emission maximum (in C1COCCO1) of the same molecule?
**A.** Its emission maximum is 454 nm.

**Q.** What about the emission maximum (in CC#N) of the same molecule?
**A.** Its emission maximum is 507 nm.

**Q.** What about the emission maximum (in CC(C)=O) of the same molecule?
**A.** Its emission maximum is 495 nm.

**Q.** What about the emission maximum (in CC(C)OC(C)C) of the same molecule?
**A.** Its emission maximum is 434 nm.

**Q.** And the emission maximum (in CCCCCC)?
**A.** Its emission maximum is 399 nm.

**Q.** What about the emission maximum (in CCCCOCCCC) of the same molecule?
**A.** Its emission maximum is 431 nm.

**Q.** What about the emission maximum (in CCN(CC)CC) of the same molecule?
**A.** The emission maximum was 422 nm.

**Q.** What about the emission maximum (in CCOC(C)=O) of the same molecule?
**A.** The emission maximum was 456 nm.

**Q.** And the emission maximum (in CCOCC)?
**A.** Its emission maximum is 440 nm.

**Q.** What about the emission maximum (in Cc1ccccc1) of the same molecule?
**A.** The emission maximum was 435 nm.

**Q.** And the emission maximum (in c1ccccc1)?
**A.** Its emission maximum is 438 nm.

**Q.** Which results are given for `Cc1ccc(-n2c(C)ccc2C)cc1`?
**A.** emission maximum (in CC#N): 409 nm; emission maximum (in CCCCCC): 337 nm

**Q.** Which emission maximum (in C1CCCCC1) does the source give for `O=S1(=O)c2ccccc2-c2cc(-c3c4ccccc4cc4ccccc34)ccc21` here?
**A.** The emission maximum was 403.35 nm.

**Q.** What about the emission maximum (in CC#N) of the same molecule?
**A.** Its emission maximum is 514.77 nm.

**Q.** What about the emission maximum (in ClCCl) of the same molecule?
**A.** Its emission maximum is 472.82 nm.

**Q.** For `COc1cc(/C=C/c2ccccc2)cc(OC)c1`, which emission maximum (in C1CCCCC1) is on record?
**A.** Its emission maximum is 364 nm.

**Q.** What about the emission maximum (in CC#N) of the same molecule?
**A.** Its emission maximum is 390 nm.

**Q.** And the emission maximum (in CC(C)O)?
**A.** The emission maximum was 382 nm.

**Q.** What about the emission maximum (in CCCCOCCCC) of the same molecule?
**A.** Its emission maximum is 372 nm.

**Q.** And the emission maximum (in CCOC(C)=O)?
**A.** The emission maximum was 382 nm.

**Q.** And the emission maximum (in CCOCC)?
**A.** The emission maximum was 374 nm.

**Q.** Which emission maximum (in ClCCl) does the source give for `CCCCC(CC)COc1cc(OCC(CC)CCCC)c2c#cc3ccc4c(c3)c3cc(c#cc5cc(c#cc6ccc7c(c6)c6cc(c#cc1c2)ccc6n7CC(CC)CCCC)c(C(CCCC)OCCC)cc5C(CCCC)OCCC)ccc3n4CC(CC)CCCC` (stereo not given) here?
**A.** Its emission maximum is 388 nm.

**Q.** For `COc1ccc2cc(-c3cccc(-c4cc5ccc(OC)cc5oc4=O)c3)c(=O)oc2c1`, which emission maximum (in ClC(Cl)Cl) is on record?
**A.** The emission maximum was 426 nm.

**Q.** Which emission maximum (in C1CCCCC1) does the source give for `CN(C)C(=O)c1ccc(-c2nc3ccc(N(C)C)cc3s2)cc1` here?
**A.** The emission maximum was 415 nm.

**Q.** What about the emission maximum (in CC#N) of the same molecule?
**A.** The emission maximum was 521 nm.

**Q.** What about the emission maximum (in CC(C)O) of the same molecule?
**A.** Its emission maximum is 518 nm.

**Q.** And the emission maximum (in CO)?
**A.** Its emission maximum is 543 nm.

**Q.** What about the emission maximum (in CS(C)=O) of the same molecule?
**A.** Its emission maximum is 534 nm.

**Q.** And the emission maximum (in ClC(Cl)Cl)?
**A.** Its emission maximum is 472 nm.

**Q.** What about the emission maximum (in c1ccccc1) of the same molecule?
**A.** Its emission maximum is 457 nm.

**Q.** With `N#Cc1cc2nc3c(nc2cc1C#N)C1c2ccc(N(c4ccccc4)c4ccccc4)cc2C3c2ccc(N(c3ccccc3)c3ccccc3)cc21` as the molecule, how does the emission maximum (in C1CCCCC1) read?
**A.** The emission maximum was 487 nm.

**Q.** What about the emission maximum (in CC#N) of the same molecule?
**A.** The emission maximum was 492 nm.

**Q.** And the emission maximum (in Cc1ccccc1)?
**A.** Its emission maximum is 552 nm.

**Q.** What about the emission maximum (in ClCCl) of the same molecule?
**A.** Its emission maximum is 497 nm.

**Q.** For `CC(C)(C)c1ccc(N(c2ccc(C(C)(C)C)cc2)c2cc(N(c3ccc(C(C)(C)C)cc3)c3ccc(C(C)(C)C)cc3)c3ccc4cc(C(C)(C)C)cc5ccc2c3c54)cc1`, which emission maximum (in ClCCl) is on record?
**A.** Its emission maximum is 491 nm.
